According to publication PMC10247784, “Physiological activation of human and mouse bitter taste receptors by bile acids” (Communications Biology, 2023):

System: HEK293T-Gα16gust44 cells transfected with empty vector (mock)
Assay: Calcium imaging assay (FLIPR), empty vector control (mock)
Format: cell-based
Experimental: This set of bile acids was chosen because of their commercial availability in high purities, their diversity within the class of bile acids and their previous detection and quantitation in human blood. Stock solutions were prepared in DMSO.
As basal growth medium for the HEK293T-Gα16gust44 cell line[17],[59] served Dulbecco’s modified eagle medium (DMEM) (Thermo Fisher Scientific, Darmstadt, Germany) supplemented with 10 % fetal bovine serum (Sigma-Aldrich, Steinheim, Germany), 2 mM L-glutamine (Sigma-Aldrich, Steinheim, Germany), 100 units/ml penicillin (Sigma Aldrich, Steinheim, Germany) and 100 µg/ml streptomycin (Sigma Aldrich, Steinheim, Germany). Growth conditions were 37 °C, 5 % CO2 and saturated air-humidity[60].
HEK293T-Gα16gust44 cells were seeded on poly-D-lysine (10 µg/ml) coated 96-well plates to reach a confluence of 40-60 % the next day. For transient transfection 150 ng of plasmid DNA containing the receptor of interest and 0.3 µl lipofectamine 2000 (Thermo Fisher Scientific, Darmstadt, Germany) per well were used and transfection took place according to the manual of lipofectamine 2000. […] The empty vector DNA (mock) was transfected as negative control[14],[41].
Cells were loaded using the calcium-sensitive fluorescent dye Fluo-4-AM (Abcam, Cambridge, Great Britain) in the presence of 2.5 mM probenecid (Sigma-Aldrich, Steinheim, Germany) the day after transfection[13],[41]. 1 h after loading, cells were washed with C1 buffer using a BioTek Cell Washer, incubated in the dark for half an hour and washed again. For automated agonist application and measurement of fluorescence changes, a FLIPR^TETRA device (Molecular Devices, San José, United States) was used. Viability of cells was tested by application of 100 nM Somatostatin 14 (Bachem, Bubendorf, Switzerland)[42].
Measured data were negative control corrected by subtracting the signal of the mock-transfected cells and exported to Microsoft Excel using the FLIPR software ScreenWorks 4.2. In Microsoft Excel software, standardization of maximum fluorescence intensities to the basal fluorescence and normalization to the buffer-only control was done to calculate the relative fluorescence changes (ΔF/F).
Initial screening experiments performed in duplicate wells were confirmed by at least one replication and representative traces were selected for display. All dose-response relationships were determined by three independent experiments (biological replicates) performed in duplicates (technical replicates). Threshold concentrations, defined as lowest substance concentrations leading to statistically significant elevated fluorescence changes in receptor-transfected cells compared with empty vector-transfected cells, were determined using SigmaPlot with Student’s t-test to evaluate statistical significance (p < 0.01).

[1] = Mock, sheet TAS2R14, conc. 0,01 mM
[2] = Mock, sheet TAS2R14, conc. 0,03 mM
[3] = Mock, sheet TAS2R14, conc. 0,001 mM
[4] = Mock, sheet TAS2R14, conc. 0,003 mM
[5] = conc. 0,01 mM, Mock (sheet TAS2R1)
[6] = conc. 0,0003 mM, Mock (sheet TAS2R1)
[7] = conc. 0,001 mM, Mock (sheet TAS2R1)
[8] = conc. 0,003 mM, Mock (sheet TAS2R1)
[9] = Mock (sheet Tas2r123), conc. 0,01 mM
[10] = Mock (sheet Tas2r123), conc. 0,03 mM
[11] = Mock (sheet Tas2r123), conc. 0,0003 mM
[12] = Mock (sheet Tas2r123), conc. 0,001 mM
[13] = Mock (sheet Tas2r123), conc. 0,003 mM
[14] = Mock, sheet TAS2R4, conc. 0,01 mM
[15] = Mock, sheet TAS2R4, conc. 0,03 mM
[16] = Mock, sheet TAS2R4, conc. 0,0003 mM
[17] = Mock, sheet TAS2R4, conc. 0,001 mM
[18] = Mock, sheet TAS2R4, conc. 0,003 mM
[19] = Mock, sheet Tas2r105, conc. 0,01 mM
[20] = Mock, sheet Tas2r105, conc. 0,03 mM
[21] = Mock, sheet Tas2r105, conc. 0,001 mM
[22] = Mock, sheet Tas2r105, conc. 0,003 mM
[23] = Mock, sheet Tas2r108, conc. 0,01 mM
[24] = Mock, sheet Tas2r108, conc. 0,03 mM
[25] = Mock, sheet Tas2r108, conc. 0,001 mM
[26] = Mock, sheet Tas2r108, conc. 0,003 mM
[27] = conc. 0,03 mM, Mock (sheet TAS2R1)

## C[C@H](CCC(=O)O)[C@H]1CC[C@H]2[C@@H]3[C@H](O)C[C@@H]4C[C@H](O)CC[C@]4(C)[C@H]3CC[C@]12C [Chenodeoxycholic Acid, chenodeoxycholic acid]
[1]
  Δ F/F: -0.007814
[2]
  Δ F/F: -0.004111
Mock, sheet TAS2R14, conc. 0,00003 mM
  Δ F/F: -0.01383
Mock, sheet TAS2R14, conc. 0,0001 mM
  Δ F/F: -0.0179
Mock, sheet TAS2R14, conc. 0,0003 mM
  Δ F/F: -0.01292
[3]
  Δ F/F: -0.005111
[4]
  Δ F/F: -0.006729
[5]
  Δ F/F: -0.001385
conc. 0,00003 mM, Mock (sheet TAS2R1)
  Δ F/F: -0.0006042
conc. 0,0001 mM, Mock (sheet TAS2R1)
  Δ F/F: -0.001709
[6]
  Δ F/F: -0.001427
[7]
  Δ F/F: -0.001629
[8]
  Δ F/F: -0.001467

## C[C@H](CCC(=O)O)[C@H]1CC[C@H]2[C@@H]3[C@H](O)C[C@@H]4C[C@H](O)CC[C@]4(C)[C@H]3C[C@H](O)[C@]12C [Cholic Acid, cholic acid]
Conc. 0,01 mM, Mock (sheet TAS2R39)
  Δ F/F: -0.01821
Conc. 0,1 mM, Mock (sheet TAS2R39)
  Δ F/F: -0.02224
Conc. 0,03 mM, Mock (sheet TAS2R39)
  Δ F/F: -0.01697
Conc. 0,3 mM, Mock (sheet TAS2R39)
  Δ F/F: -0.04388
Conc. 0,001 mM, Mock (sheet TAS2R39)
  Δ F/F: -0.01201
Conc. 1 mM, Mock (sheet TAS2R39)
  Δ F/F: -0.08707
Conc. 0,003 mM, Mock (sheet TAS2R39)
  Δ F/F: -0.01404
[9]
  Δ F/F: -0.0003322
Mock (sheet Tas2r123), conc. 0,1 mM
  Δ F/F: -0.0005726
[10]
  Δ F/F: -0.0005964
Mock (sheet Tas2r123), conc. 0,3 mM
  Δ F/F: 0.0008115
[11]
  Δ F/F: -0.001363
[12]
  Δ F/F: -0.001187
[13]
  Δ F/F: -0.0002243
Mock (sheet Tas2r126), conc. 0,01 mM
  Δ F/F: -0.02005
Mock (sheet Tas2r126), conc. 0,1 mM
  Δ F/F: -0.02997
Mock (sheet Tas2r126), conc. 0,03 mM
  Δ F/F: -0.01829
Mock (sheet Tas2r126), conc. 0,3 mM
  Δ F/F: -0.04711
Mock (sheet Tas2r126), conc. 0,001 mM
  Δ F/F: -0.01156
Mock (sheet Tas2r126), conc. 1 mM
  Δ F/F: -0.07412
Mock (sheet Tas2r126), conc. 0,003 mM
  Δ F/F: -0.01876
Mock (sheet Tas2r144), conc. 0,01 mM
  Δ F/F: 0.0002394
Mock (sheet Tas2r144), conc. 0,1 mM
  Δ F/F: -0.0009617
Mock (sheet Tas2r144), conc. 0,03 mM
  Δ F/F: 0.0001706
Mock (sheet Tas2r144), conc. 0,3 mM
  Δ F/F: 2.3167e-5
Mock (sheet Tas2r144), conc. 0,003 mM
  Δ F/F: -0.001282
[14]
  Δ F/F: -0.001675
Mock, sheet TAS2R4, conc. 0,1 mM
  Δ F/F: 0.0001605
[15]
  Δ F/F: -0.001772
Mock, sheet TAS2R4, conc. 0,3 mM
  Δ F/F: 0.0004382
[16]
  Δ F/F: 0.001019
[17]
  Δ F/F: -0.0001368
[18]
  Δ F/F: -0.001078
[1]
  Δ F/F: -0.01829
Mock, sheet TAS2R14, conc. 0,1 mM
  Δ F/F: -0.02451
[2]
  Δ F/F: -0.01803
Mock, sheet TAS2R14, conc. 0,3 mM
  Δ F/F: -0.04097
[3]
  Δ F/F: -0.0206
Mock, sheet TAS2R14, conc. 1 mM
  Δ F/F: -0.06455
[4]
  Δ F/F: -0.02081
[19]
  Δ F/F: -0.01514
Mock, sheet Tas2r105, conc. 0,1 mM
  Δ F/F: -0.02586
[20]
  Δ F/F: -0.01353
Mock, sheet Tas2r105, conc. 0,3 mM
  Δ F/F: -0.04947
[21]
  Δ F/F: -0.01259
Mock, sheet Tas2r105, conc. 1 mM
  Δ F/F: -0.08731
[22]
  Δ F/F: -0.01645
[23]
  Δ F/F: -0.0241
Mock, sheet Tas2r108, conc. 0,1 mM
  Δ F/F: -0.03289
[24]
  Δ F/F: -0.0233
Mock, sheet Tas2r108, conc. 0,3 mM
  Δ F/F: -0.05172
[25]
  Δ F/F: -0.01866
Mock, sheet Tas2r108, conc. 1 mM
  Δ F/F: -0.07524
[26]
  Δ F/F: -0.01483
Mock, sheet Tas2r117, conc. 0,01 mM
  Δ F/F: -0.001513
Mock, sheet Tas2r117, conc. 0,1 mM
  Δ F/F: -0.0006881
Mock, sheet Tas2r117, conc. 0,03 mM
  Δ F/F: -0.0006551
Mock, sheet Tas2r117, conc. 0,3 mM
  Δ F/F: -0.001135
Mock, sheet Tas2r117, conc. 0,0003 mM
  Δ F/F: -0.002036
Mock, sheet Tas2r117, conc. 0,001 mM
  Δ F/F: -0.0005906
Mock, sheet Tas2r117, conc. 0,003 mM
  Δ F/F: -0.001196
[5]
  Δ F/F: -0.002604
conc. 0,1 mM, Mock (sheet TAS2R1)
  Δ F/F: -0.002131
[27]
  Δ F/F: -0.002188
conc. 0,3 mM, Mock (sheet TAS2R1)
  Δ F/F: -0.001094
[7]
  Δ F/F: -0.001978
[8]
  Δ F/F: -0.003067

## C[C@H](CCC(=O)O)[C@H]1CC[C@H]2[C@@H]3CC[C@@H]4C[C@H](O)CC[C@]4(C)[C@H]3C[C@H](O)[C@]12C [Deoxycholic Acid, deoxycholic acid]
[9]
  Δ F/F: -0.0008829
[10]
  Δ F/F: -0.0003165
Mock (sheet Tas2r123), conc. 0,0001 mM
  Δ F/F: 0.00132
[11]
  Δ F/F: -0.002173
[12]
  Δ F/F: -0.000706
[13]
  Δ F/F: -0.0005125
[14]
  Δ F/F: 0.0004181
[15]
  Δ F/F: 0.001864
[16]
  Δ F/F: 0.0005365
[17]
  Δ F/F: 0.0001116
[18]
  Δ F/F: 0.0001746
[19]
  Δ F/F: -0.01259
[20]
  Δ F/F: -0.004122
Mock, sheet Tas2r105, conc. 0,00003 mM
  Δ F/F: -0.01446
Mock, sheet Tas2r105, conc. 0,0001 mM
  Δ F/F: -0.0178
Mock, sheet Tas2r105, conc. 0,0003 mM
  Δ F/F: -0.01787
[21]
  Δ F/F: -0.0148
[22]
  Δ F/F: -0.01449
[23]
  Δ F/F: -0.006813
[24]
  Δ F/F: -0.0003425
Mock, sheet Tas2r108, conc. 0,00003 mM
  Δ F/F: -0.01113
Mock, sheet Tas2r108, conc. 0,0001 mM
  Δ F/F: -0.01772
Mock, sheet Tas2r108, conc. 0,0003 mM
  Δ F/F: -0.01462
[25]
  Δ F/F: -0.01703
[26]
  Δ F/F: -0.01481
[5]
  Δ F/F: -0.0008034
[27]
  Δ F/F: -0.0003771
[6]
  Δ F/F: -0.002238
[7]
  Δ F/F: -0.001593
[8]
  Δ F/F: -0.0004081
